In ChEMBL document CHEMBL5385851, “Natural quinazolinones: From a treasure house to promising anticancer leads” (Eur J Med Chem, 2023):
Converted amounts (≈) assume the structure as drawn. Each block holds one compound with its values, some of them ahead of it.

What was measured:
A549 [1] = experiment: Cytotoxicity against human A549 cells assessed as inhibition of cell growth measured after 72 hrs by MTT assay; type: functional, cell-based; conditions: A549, 72 h
Hs 683 [2] = experiment: Cytotoxicity against human Hs 683 cells assessed as reduction in cell viability by MTT assay; type: functional, cell-based
[3] = Antiproliferative activity against human U373 cells assessed as reduction in cell viability; type: functional, cell-based; conditions: U373 MG
SK-MEL-28 [4] = experiment: Cytotoxicity against human SK-MEL-28 cells assessed as reduction in cell growth; type: functional, cell-based
MCF7 [5] = experiment: Cytotoxicity against human MCF7 assessed as reduction in cell viability incubated for 24 hrs by MTT assay; type: functional, cell-based; conditions: MCF7, 24 h
PC-3 = experiment: Cytotoxicity against human PC-3 cells assessed as inhibition of cell growth; type: functional, cell-based
SNU1 = experiment: Cytotoxicity against human SNU1 cells assessed as inhibition of cell growth measured after 72 hrs by cell titer glo assay; type: functional, cell-based; conditions: SNU1, 72 h
AGS = experiment: Cytotoxicity against human AGS cells assessed as reduction in cell viability incubated for 48 hrs by MTT assay; type: functional, cell-based
KB = experiment: Cytotoxicity against human KB cells assessed as cell growth inhibition; type: functional, cell-based
HCT-116 [6] = experiment: Cytotoxicity against human HCT-116 cells assessed as reduction in cell viability incubated for 24 hrs by MTT assay; type: functional, cell-based; conditions: HCT-116, 24 h
P388 [7] = experiment: Cytotoxicity against mouse P388 cells assessed as reduction in cell growth; type: functional; conditions: read-out: ED50 (the source's name)
A549 [8] = experiment: Antiproliferative activity against human A549 cells assessed as cell growth inhibition measured after 72 hrs by MTT assay; type: functional, cell-based; conditions: A549, 72 h
A-375 [9] = experiment: Cytotoxicity against human A-375 cells assessed as reduction in cell growth incubated for 48 hrs by MTT assay; type: functional, cell-based; conditions: A-375, 48 h
HepG2 [10] = experiment: Cytotoxicity against human HepG2 cells assessed as cell growth inhibition measured after 48 hrs by MTT assay; type: functional, cell-based; conditions: HepG2, 48 h
HCT-116 [11] = experiment: Cytotoxicity against human HCT-116 cells assessed as reduction in cell growth incubated for 48 hrs by MTT assay; type: functional, cell-based; conditions: HCT-116, 48 h
K562 [12] = experiment: Cytotoxicity against human K562 cells assessed as reduction in cell viability incubated for 24 hrs by MTT assay; type: functional, cell-based; conditions: K562, 24 h
SW 1116 = experiment: Antiproliferative activity against human […] cells assessed as reduction in cell viability incubated for 24 hrs by MTT assay; type: functional, cell-based; conditions: SW 1116, 24 h
HepG2 [13] = experiment: Antiproliferative activity against human HepG2 cells assessed as inhibition of cell growth incubated for 48 hrs by MTT based colorimetric assay; type: functional; conditions: HepG2, 48 h
A549 [14] = experiment: Antiproliferative activity against human A549 cells assessed as cell growth inhibition incubated for 48 hrs by MTT assay; type: functional, cell-based; conditions: A549, 48 h
A-375 [15] = experiment: Antiproliferative activity against human A-375 cells assessed as inhibition of cell growth incubated for 48 hrs by MTT based colorimetric method; type: functional; conditions: A-375, 48 h
HCT-116 [16] = experiment: Antiproliferative activity against human HCT-116 cells assessed as inhibition of cell growth incubated for 48 hrs by MTT based colorimetric assay; type: functional; conditions: HCT-116, 48 h
P388 [17] = experiment: Cytotoxicity against mouse P388 cells assessed as inhibition of cell growth; type: functional, cell-based
K562 [18] = experiment: Cytotoxicity against human K562 cells assessed as cell growth inhibition after 48 hrs by MTT assay; type: functional, cell-based; conditions: K562, 48 h
MCF7 [19] = experiment: Antiproliferative activity against human MCF7 cells assessed as reduction in cell viability incubated for 48 hrs by MTT assay; type: functional, cell-based; conditions: MCF7, 48 h
SK-MEL-28 [20] = experiment: Cytotoxicity against human SK-MEL-28 cells assessed as inhibition of cell growth incubated for 72 hrs by MTT assay; type: functional, cell-based; conditions: SK-MEL-28, 72 h
A549 [21] = experiment: Antiproliferative activity against human A549 cells assessed as cell growth inhibition; type: functional, cell-based
[22] = Antiproliferative activity against human U373 cells assessed as inhibition of cell growth measured after 72 hrs by CTG assay; type: functional, cell-based; conditions: U373 MG
HepG2 [23] = experiment: Antiproliferative activity against human HepG2 cells assessed as reduction in cell viability incubated for 72 hrs by CCK-8 assay; type: functional, cell-based; conditions: HepG2, 72 h
[24] = biological target: Tryptophan 2,3-dioxygenase (Homo sapiens, UniProt P48775); experiment: Inhibition of TDO (unknown origin) expressed in HEK293 cells; type: cell-based
[25] = biological target: Indoleamine 2,3-dioxygenase 1 (Homo sapiens, UniProt P14902); experiment: Inhibition of IDO1 in human HeLa cells; type: cell-based
HepG2 [26] = experiment: Cytotoxicity against human HepG2 cells assessed as reduction in cell viability incubated for 24 hrs by MTT based colorimetric assay; type: functional; conditions: HepG2, 24 h
[27] = Cytotoxicity against human U373 cells assessed as reduction in cell viability after 24 hrs by MTT assay; type: functional, cell-based; conditions: U373 MG
SK-MEL-28 [28] = experiment: Cytotoxicity against human SK-MEL-28 cells assessed as reduction in cell viability measured after 24 hrs by MTT assay; type: functional, cell-based; conditions: SK-MEL-28, 24 h
HCT-116 [29] = experiment: Cytotoxicity against human HCT-116 cells assessed as cell growth inhibition incubated for 24 hrs by MTT based colorimetric assay; type: functional; conditions: HCT-116, 24 h
A549 [30] = experiment: Cytotoxicity against human A549 cells assessed as reduction in cell growth; type: functional, cell-based
MCF7 [31] = experiment: Cytotoxicity against human MCF7 cells assessed as reduction in cell viability by SRB assay; type: functional, cell-based
A549 [32] = experiment: Cytotoxicity against human A549 cells assessed as reduction in cell growth incubated for 5 days by MTT assay; type: functional, cell-based; conditions: A549, 120 h
Hs 683 [33] = experiment: Cytotoxicity against human Hs 683 cells; type: functional, cell-based

Tryptophan 2,3-dioxygenase, sequence (P48775 whole entry): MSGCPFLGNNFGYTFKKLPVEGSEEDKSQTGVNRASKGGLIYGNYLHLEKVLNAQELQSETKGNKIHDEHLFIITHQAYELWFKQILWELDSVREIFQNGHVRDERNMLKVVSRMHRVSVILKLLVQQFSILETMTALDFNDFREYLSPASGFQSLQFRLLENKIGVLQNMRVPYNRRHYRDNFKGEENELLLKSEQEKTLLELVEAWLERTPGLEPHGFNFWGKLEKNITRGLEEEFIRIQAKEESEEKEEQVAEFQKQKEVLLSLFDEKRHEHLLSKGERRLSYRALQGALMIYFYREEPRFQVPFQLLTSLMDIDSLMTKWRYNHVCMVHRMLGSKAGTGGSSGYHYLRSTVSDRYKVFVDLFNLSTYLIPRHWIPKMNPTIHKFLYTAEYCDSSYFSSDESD
Indoleamine 2,3-dioxygenase 1, sequence (P14902 whole entry): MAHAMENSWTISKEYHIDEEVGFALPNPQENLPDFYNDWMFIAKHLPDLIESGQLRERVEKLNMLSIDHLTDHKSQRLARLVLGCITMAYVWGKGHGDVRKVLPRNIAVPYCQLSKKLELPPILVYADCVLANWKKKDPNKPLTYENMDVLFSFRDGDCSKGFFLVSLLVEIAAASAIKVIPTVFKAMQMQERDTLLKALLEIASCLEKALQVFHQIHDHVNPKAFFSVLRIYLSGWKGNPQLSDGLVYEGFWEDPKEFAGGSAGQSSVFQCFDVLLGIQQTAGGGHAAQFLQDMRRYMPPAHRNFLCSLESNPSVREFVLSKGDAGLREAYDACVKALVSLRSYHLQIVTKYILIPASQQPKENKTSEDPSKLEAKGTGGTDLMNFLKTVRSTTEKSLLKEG

SMILES: O=C1N[C@H]2c3[nH]c4ccccc4c3C[C@@H]1n1c2nc2ccccc2c1=O
- IC50 (A549 [1]): 39 µM
- IC50 (Hs 683 [2]): 50 µM
- IC50 [3]: 50 µM
- IC50 (SK-MEL-28 [4]): 73 µM
- IC50 (MCF7 [5]): 43 µM

SMILES: COc1ccc2c(=O)n3c(nc2c1)-c1[nH]c2ccccc2c1CC3
- IC50 (PC-3): 19.4 µM

SMILES: O=C(C[C@H]1NCCC[C@@H]1O)Cn1cnc2ccccc2c1=O
- IC50 (SNU1): 0.05 µg/mL (≈ 0.166 µM)
- IC50 (AGS): 0.17 µg/mL (≈ 0.564 µM)

SMILES: C=CC(C)(C)[C@@]12C[C@H]3c4nc5ccccc5c(=O)n4[C@H](C)C(=O)N3[C@@H]1N(C(C)=O)c1ccccc12
- IC50 (KB): 107 µM

SMILES: O=Cc1c(-c2nc3ccccc3c(=O)[nH]2)[nH]c2ccccc12
- IC50 (HCT-116 [6]): 12.1 µM

SMILES: CO[C@@]1(C)NC(=O)[C@@H](C[C@]2(O)c3ccccc3N3C(=O)[C@H](C)N[C@@H]32)n2c1nc1ccccc1c2=O
- EC50 (P388 [7]): 13.8 µg/mL (≈ 29 µM)

- IC50 (A549 [8]): 0.54 µM
SMILES: CC(C)[C@@H]1NC(=O)[C@@H](C[C@]2(O)c3ccccc3N3C(=O)[C@H](C)N[C@H]32)n2c1nc1ccccc1c2=O
- IC50 (A-375 [9]): 169 µM
- IC50 (HepG2 [10]): 53 µM
- IC50 (HCT-116 [11]): 123 µM

SMILES: C[C@H]1C(=O)N2c3ccccc3[C@@]3(O)C[C@@H](n4cnc5ccccc5c4=O)C(=O)N1[C@@H]23
- IC50 (K562 [12]): 0.035 µM
- IC50 (SW 1116): 0.034 µM

- IC50 (HepG2 [13]): 58 µM
- IC50 (A549 [14]): 0.54 µM
- IC50 (A-375 [15]): 108 µM
- IC50 (HCT-116 [16]): 114 µM
SMILES: CC(=O)O[C@H](c1nc2ccccc2c(=O)n1[C@@H]1C[C@@]2(OC1=O)c1ccccc1N1C(=O)C(C)(C)N(O)[C@H]12)C(C)C

SMILES: O=C(c1cnc2ccccc2c1)c1nc2ccccc2c(=O)[nH]1
- IC50 (P388 [17]): 2.3 µg/mL (≈ 7.63 µM)

SMILES: COc1ccc2c(=O)n3ccc4c5ccccc5[nH]c4c3nc2c1
- IC50 (PC-3): 22.1 µM

SMILES: C[C@@]12NC(=O)[C@@H](CC13c1ccccc1N1C(=O)CN[C@@H]13)n1c2nc2ccccc2c1=O (stereo partly drawn)
- IC50 (K562 [18]): 50 µM

- IC50 (MCF7 [19]): 91 µM
- IC50 (A549 [21]): > 100 µM
- IC50 (HepG2 [23]): 235 µM
SMILES: CC1(C)C(=O)N2c3ccccc3[C@@]3(C[C@@H](n4cnc5ccccc5c4=O)C(=O)O3)[C@@H]2N1C=O
- IC50 (SK-MEL-28 [20]): > 100 µM
- IC50 [22]: > 100 µM

- IC50 [24]: 0.06 µM
- IC50 [25]: 0.02 µM
SMILES: CN(C)CCc1ccc2nc3n(c(=O)c2c1)C1C=CC(F)=CC1C3=O (stereo not drawn)

SMILES: C[C@@H]1N[C@H]2N(C1=O)c1ccccc1[C@@]2(O)C[C@@H]1C(=O)N[C@H](C)c2nc3ccccc3c(=O)n21
- EC50 (P388 [7]): 16 µg/mL (≈ 35.9 µM)

SMILES: C=CC(C)(C)[C@@]12C[C@@]3(O)c4nc5ccccc5c(=O)n4[C@H](C)C(=O)N3[C@@H]1N(C(C)=O)c1ccccc12
- IC50 (KB): 61.4 µM

SMILES: CC(C)[C@H]1NC(=O)[C@@H](C[C@]2(O)c3ccccc3N3C(=O)[C@H](C)N[C@H]32)n2c1nc1ccccc1c2=O
- IC50 (HepG2 [26]): 115 µM
- IC50 [27]: > 100 µM
- IC50 (SK-MEL-28 [28]): > 100 µM
- IC50 (HCT-116 [29]): 277 µM
- IC50 (A549 [30]): 0.54 µM
- IC50 (MCF7 [31]): > 100 µM
- IC50 (A549 [32]): > 100 µM
- IC50 (Hs 683 [33]): > 100 µM

- IC50 [24]: 0.09 µM
- IC50 [25]: 0.02 µM
SMILES: CN1CCN(CCc2ccc3nc4n(c(=O)c3c2)C2C=CC(F)=CC2C4=O)CC1 (stereo not drawn)
